The subject of the test is MCF-7/ADR drug resistant cell line. Description: IC50 of DOX against drug-resistant cell line. The conditions noted are these: ratio MCF-7/ADR to MCF-7. Type of test: cell-based.

`COc1cccc2c1C(=O)c1c(O)c3c(c(O)c1C2=O)C[C@@](O)(C(=O)CO)C[C@@H]3O[C@H]1C[C@H](N)[C@H](O)[C@H](C)O1` [DOX, doxorubicin]: the “IC50 in MCF-7/ADR cells relative to MCF-7 cells” value turned out to be 108.07 fold.

The values above are taken from paper PMC8965496, “Combating multidrug resistance and metastasis of breast cancer by endoplasmic reticulum stress and cell-nucleus penetration enhanced immunochemotherapy” (Theranostics, 2022).
